Reference: PubChem BioAssay AID1963441 (Molecular Pharmacology Branch, DTP, NCI, 2024)

Tested on: NCI-H1876 complex spheroid growth, % test/control
Assay: Anticancer human tumor NCI-H1876 cell line growth inhibition [Asc];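 further: compound exposure lasted 7 days starting three days after seeding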;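 on viability, T/C: 100% = DMSO vehicle control wells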
Conditions: for IC50: curve of first compound; for viability, T/C: stronger effect = lower value; active means viability on the fitted dose curve at most 10% of control; inactive means the rest
Outline: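 Spheroid model: tumor line + HUVEC + hMSC. Single agents and combinations; top conc. at/near clinical Cmax (10 microM if undetermined), half-log dilutions. DMSO stocks at 800-fold test concentration.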

COc1c(OCCCN2CCOCC2)ccc2c3n(c(=NC(=O)c4cnc(N)nc4)nc12)CCN3 + CCN1C(C(=O)NC23CCC(C(=O)O)(CC2)CC3)C(c2cccc(Cl)c2F)C2(C(=O)Nc3cc(Cl)ccc32)C12CCCCC2
690 nM: IC50 (second compound 0.0949 µM)
719 nM: IC50 (second compound 0.00949 µM)
614 nM: IC50 (second compound 0.949 µM)
718 nM: IC50 (second compound 0.3 µM)
inactive: viability, T/C (second compound 0.00949 µM, first compound 0.00316 µM) 96.8% | viability, T/C (second compound 0.00949 µM, first compound 0.01 µM) 93.6% | viability, T/C (second compound 0.00949 µM, first compound 0.0316 µM) 101% | viability, T/C (second compound 0.00949 µM, first compound 0.1 µM) 72.7% | viability, T/C (second compound 0.00949 µM, first compound 0.316 µM) 66.4% | viability, T/C (second compound 0.00949 µM, first compound 1 µM) 44% | viability, T/C (second compound 0.03 µM, first compound 0.00316 µM) 133% | viability, T/C (second compound 0.03 µM, first compound 0.01 µM) 96% | viability, T/C (second compound 0.03 µM, first compound 0.0316 µM) 94.2% | viability, T/C (second compound 0.03 µM, first compound 0.1 µM) 70.6% | viability, T/C (second compound 0.03 µM, first compound 0.316 µM) 59.8% | viability, T/C (second compound 0.03 µM, first compound 1 µM) 45.8% | viability, T/C (second compound 0.0949 µM, first compound 0.00316 µM) 99.3% | viability, T/C (second compound 0.0949 µM, first compound 0.01 µM) 96.2% | viability, T/C (second compound 0.0949 µM, first compound 0.0316 µM) 90.8% | viability, T/C (second compound 0.0949 µM, first compound 0.1 µM) 77.5% | viability, T/C (second compound 0.0949 µM, first compound 0.316 µM) 67.3% | viability, T/C (second compound 0.0949 µM, first compound 1 µM) 42.1% | viability, T/C (second compound 0.3 µM, first compound 0.00316 µM) 96.8% | viability, T/C (second compound 0.3 µM, first compound 0.01 µM) 96% | viability, T/C (second compound 0.3 µM, first compound 0.0316 µM) 93% | viability, T/C (second compound 0.3 µM, first compound 0.1 µM) 70.6% | viability, T/C (second compound 0.3 µM, first compound 0.316 µM) 65.9% | viability, T/C (second compound 0.3 µM, first compound 1 µM) 44.1% | viability, T/C (second compound 0.949 µM, first compound 0.00316 µM) 108% | viability, T/C (second compound 0.949 µM, first compound 0.01 µM) 105% | viability, T/C (second compound 0.949 µM, first compound 0.0316 µM) 92.4% | viability, T/C (second compound 0.949 µM, first compound 0.1 µM) 75.4% | viability, T/C (second compound 0.949 µM, first compound 0.316 µM) 58.7% | viability, T/C (second compound 0.949 µM, first compound 1 µM) 43.9% | viability, T/C (second compound 3 µM, first compound 0.00316 µM) 106% | viability, T/C (second compound 3 µM, first compound 0.01 µM) 103% | viability, T/C (second compound 3 µM, first compound 0.0316 µM) 81.2% | viability, T/C (second compound 3 µM, first compound 0.1 µM) 80.1% | viability, T/C (second compound 3 µM, first compound 0.316 µM) 64.7% | viability, T/C (second compound 3 µM, first compound 1 µM) 35.7%
543 nM: IC50 (second compound 3 µM)
741 nM: IC50 (second compound 0.03 µM)

Cn1ncnc1[C@H]1c2n[nH]c(=O)c3cc(F)cc(c23)N[C@@H]1c1ccc(F)cc1 + Cc1c(S(C)(=O)=O)c(-c2cc(F)cc(N3CCN(c4ccc(NS(=O)(=O)c5ccc(NC(CCN6CCC(C(=O)OCCCP(=O)(O)O)CC6)CSc6ccccc6)c(S(=O)(=O)C(F)(F)F)c5)cc4)CC3)c2)c(-c2ccc(Cl)cc2)n1C(C)C
> 100 nM: IC50 (second compound 0.0316 µM) | IC50 (second compound 0.1 µM) | IC50 (second compound 0.316 µM) | IC50 (second compound 1 µM) | IC50 (second compound 3.16 µM) | IC50 (second compound 10 µM)
inactive: viability, T/C (second compound 0.0316 µM, first compound 0.000316 µM) 89.8% | viability, T/C (second compound 0.0316 µM, first compound 0.001 µM) 82.8% | viability, T/C (second compound 0.0316 µM, first compound 0.00316 µM) 101% | viability, T/C (second compound 0.0316 µM, first compound 0.01 µM) 94.2% | viability, T/C (second compound 0.0316 µM, first compound 0.0316 µM) 106% | viability, T/C (second compound 0.0316 µM, first compound 0.1 µM) 81.6% | viability, T/C (second compound 0.1 µM, first compound 0.000316 µM) 100% | viability, T/C (second compound 0.1 µM, first compound 0.001 µM) 92.9% | viability, T/C (second compound 0.1 µM, first compound 0.00316 µM) 98.4% | viability, T/C (second compound 0.1 µM, first compound 0.01 µM) 111% | viability, T/C (second compound 0.1 µM, first compound 0.0316 µM) 96.7% | viability, T/C (second compound 0.1 µM, first compound 0.1 µM) 86.5% | viability, T/C (second compound 0.316 µM, first compound 0.000316 µM) 92% | viability, T/C (second compound 0.316 µM, first compound 0.001 µM) 101% | viability, T/C (second compound 0.316 µM, first compound 0.00316 µM) 95.5% | viability, T/C (second compound 0.316 µM, first compound 0.01 µM) 110% | viability, T/C (second compound 0.316 µM, first compound 0.0316 µM) 94.7% | viability, T/C (second compound 0.316 µM, first compound 0.1 µM) 74.3% | viability, T/C (second compound 1 µM, first compound 0.000316 µM) 110% | viability, T/C (second compound 1 µM, first compound 0.001 µM) 89.8% | viability, T/C (second compound 1 µM, first compound 0.00316 µM) 94.7% | viability, T/C (second compound 1 µM, first compound 0.01 µM) 94.7% | viability, T/C (second compound 1 µM, first compound 0.0316 µM) 91.7% | viability, T/C (second compound 1 µM, first compound 0.1 µM) 64% | viability, T/C (second compound 3.16 µM, first compound 0.000316 µM) 94.2% | viability, T/C (second compound 3.16 µM, first compound 0.001 µM) 95.7% | viability, T/C (second compound 3.16 µM, first compound 0.00316 µM) 94.1% | viability, T/C (second compound 3.16 µM, first compound 0.01 µM) 92.6% | viability, T/C (second compound 3.16 µM, first compound 0.0316 µM) 81% | viability, T/C (second compound 3.16 µM, first compound 0.1 µM) 53.7% | viability, T/C (second compound 10 µM, first compound 0.000316 µM) 100% | viability, T/C (second compound 10 µM, first compound 0.001 µM) 106% | viability, T/C (second compound 10 µM, first compound 0.00316 µM) 84.2% | viability, T/C (second compound 10 µM, first compound 0.01 µM) 95.9% | viability, T/C (second compound 10 µM, first compound 0.0316 µM) 80.4% | viability, T/C (second compound 10 µM, first compound 0.1 µM) 55.8%
